Reference: patent publication US8460925B2, “Methods for culturing mammalian taste cells” (priority 2004, dated 2013)

Assays:
[1] = tested on: cultured taste cells; assay: Response of cultured taste cells to taste stimuli by Ca-imaging (fura-2); type: cell-based, rat; settings: elevation of intracellular calcium
Protocol: Taste cells employed are isolated as described in Example 1 and cultured for 1 week or 2 months on rat tail collagen type 1-coated coverslips.
(§1) Ca-imaging is performed as follows. The coverslips are incubated for 15-30 minutes with calcium sensitive dye in Modified MHNK ringer's solution (80 mM NaCl, 5 mM KCl, 1 mM MgCl2, 1 mM CaCl2, 1 mM Na-pyruvate, and 20 mM Hepes-Na, pH 7.2 with osmolarity adjusted to 300-310 by 5M NaCl) supplemented with […] (Molecular Probes Inc., Eugene, Oreg.) and 20 mg/ml PLURONIC® F127 (Molecular Probes Inc.). The calcium sensitive dye fura-2 AM is cleaved to fura-2 which is fluorescent and can be detected.
After incubation, coverslips are placed in a recording chamber and continuously bathed with Modified MHNK Ringer's solution that is applied as superfusion.
The stimuli (Denatonium benzoate 2 mM and 0.5 mM, Acesulfame K 250 ppm, Monosodium glutamate (MSG) 3 mM, Cycloheximide 25 μM, Glycine 125 mM, and High K buffer (modified Modified MHNK ringer's solution with 5 mM NaCl, 80 mM KCl, 1 mM MgCl2, 1 mM CaCl2, 1 mM Na-pyruvate, and 20 mM Hepes-Na, pH 7.2 with osmolarity adjusted to 300-310 by 5M NaCl) are applied to the coverslip by switching the superfusion to the stimulus solution, which allows for a complete change of bath solutions in the chamber within 10 seconds.
Calcium imaging recordings are performed using standard imaging techniques as described by Restrepo D., M. Zviman and N. E. Rawson, “The measurement of intracellular calcium in chemosensory cells”, in: Methods in Chemosensory Research, Ed. by A. Spielman and J. Brand. CRC Press, 1995. […] Emitted light from fura-2 in the cells under 200× magnification is filtered at 510 nm and recorded with a cooled CCD camera (Olympix, Perkin Elmer Life Sciences, Bethesda Md.). The excitation wavelength is 340-380 nm and the emission wavelength is 510 nm using a wide band filter. Images are digitalized using a Merlin Imaging Workstation (Perkin Elmer Life Sciences, Bethesda Md.), which controls illuminator, camera, and acquisition, and performs the image ratioing and the display of pseudocolor images.
Stimuli are diluted in Modified MHNK ringer's solution and applied via a gravity-flow superfusion apparatus for about 10-60 seconds, depending on the stimulus. […] Typically several cells are tested.

[2] = target: T1, mouse T2R5 (Mus musculus, UniProt Q9JKT4); assay: Calcium imaging of cultured taste cells transfected with mT2R5; type: cell-based
T1 construct: sst (N-terminal export tag; by own knowledge of Bufe et al. 2002, the first 45 residues of rat somatostatin receptor type 3) (N); expressed in transfected cells; host or cells: primary cultured rat taste cells on rat tail collagen-1-coated coverslips
T1 sequence (Q9JKT4 1-300): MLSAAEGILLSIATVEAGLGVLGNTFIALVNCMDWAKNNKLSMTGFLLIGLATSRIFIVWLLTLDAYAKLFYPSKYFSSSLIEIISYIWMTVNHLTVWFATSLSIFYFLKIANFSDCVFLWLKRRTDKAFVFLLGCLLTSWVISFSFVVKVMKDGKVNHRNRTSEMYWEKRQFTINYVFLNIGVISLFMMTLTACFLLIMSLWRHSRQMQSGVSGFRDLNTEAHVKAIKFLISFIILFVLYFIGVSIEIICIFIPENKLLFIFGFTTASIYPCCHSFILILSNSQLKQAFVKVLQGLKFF
Protocol: as §1
(§2) Calcium imaging recordings are performed using standard imaging techniques as described by Restrepo D., M. Zviman and N. E. Rawson, “The measurement of intracellular calcium in chemosensory cells”, in: Methods in Chemosensory Research, Ed. by A. Spielman and J. Brand. CRC Press, 1995. Illumination is provided by a LSR SPECTRAMASTER monochromator coupled to the microscope. Emitted light from fura-2 in the cells under 200× magnification is filtered at 510 nm and recorded with a cooled CCD camera (Olympix, Perkin Elmer Life Sciences, Bethesda Md.). The excitation wavelength is 340-380 nm and the emission wavelength is 510 nm using a wide band filter. Images are digitalized using a Merlin Imaging Workstation (Perkin Elmer Life Sciences, Bethesda Md.), which controls illuminator, camera, and acquisition, and performs the image ratioing and the display of pseudocolor images. […]

[3] = target: T2, human T2R16 (Homo sapiens, UniProt Q9NYV7); assay: Calcium imaging of cultured taste cells transfected with hT2R16; type: cell-based
T2 construct: expressed in transfected cells; host or cells: primary cultured rat taste cells on rat tail collagen-1-coated coverslips
T2 sequence (Q9NYV7 1-291): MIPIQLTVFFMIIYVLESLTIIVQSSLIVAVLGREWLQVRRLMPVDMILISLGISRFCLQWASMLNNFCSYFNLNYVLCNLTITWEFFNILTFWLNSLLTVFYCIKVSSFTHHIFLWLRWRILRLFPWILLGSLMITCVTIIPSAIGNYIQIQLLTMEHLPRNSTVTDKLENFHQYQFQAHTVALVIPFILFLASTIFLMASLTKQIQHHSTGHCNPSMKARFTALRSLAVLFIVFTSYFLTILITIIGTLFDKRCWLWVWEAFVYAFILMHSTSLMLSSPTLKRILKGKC
Protocol: as §1, §2

effective concentration for increase in intracellular calcium [3] | SMILES | activation of cultured taste cells by taste stimulants as shown by calcium imaging [1] | effective concentration for increase in intracellular calcium [2]
– | CC1=CC(=O)NS(=O)(=O)O1.[K] [Acesulfame K, 6-Methyl-1,2,3-oxathiazin-4(3H)-one 2,2-dioxide potassium salt] | activated | –
– | CC1CC(C)C(=O)C(C(O)CC2CC(=O)NC(=O)C2)C1 (stereo not shown) [Cycloheximide, 3-[2-(3,5-Dimethyl-2-oxocyclohexyl)-2-hydroxyethyl]glutarimide] | activated | 1 µM
– | CC[N+](CC)(CC(=O)Nc1c(C)cccc1C)Cc1ccccc1 [Denatonium, Denatonium benzoate] | activated | –
– | NCC(=O)O [Glycine] | activated | –
– | N[C@@H](CCC(=O)O)C(=O)[O-].[Na+] [MSG, Monosodium glutamate] | activated | –
1 milliM | OC[C@H]1O[C@@H](Oc2ccccc2)[C@H](O)[C@@H](O)[C@@H]1O [phenyl-beta-D-glucopyranoside] | – | –
